In patent US12252524B2, “GIP/GLP1 co-agonist compounds” (Eli Lilly and Company, priority 2018, dated 2025):
Numbered stars: 1 amine (or outer) side, 2 acyl side, 3 side chain; on linkers, the order of the positions; unused ones are H or OH. Square brackets hold non-standard residues; d marks the D form. Side chains are listed from the residue outwards. Peptide text beside a SMILES is read from it. * marks the point of attachment. C20 diacid = O=C(O)CCCCCCCCCCCCCCCCCCC(=O)*; C18 diacid = O=C(O)CCCCCCCCCCCCCCCCC(=O)*; αMePhe(2-F) = C[C@](N)(Cc1ccccc1F)C(=O)O; γGlu = O=C(O)[C@H](CCC(=O)[*:2])N[*:1]; αMeL = CC(C)C[C@](C)(N)C(=O)O; AEEA = NCCOCCOCC(=O)O; Aib = CC(C)(N)C(=O)O

How the values were obtained:
[1] = molecular target: human GLP-1 receptor (GLP-1R) (Homo sapiens, UniProt P43220); assay: cAMP pharmacological functional assay in presence of casein, hGLP-1R; assay type: cell-based; details: HEK293 cells expressing hGLP-1R, 0.1% Casein, geometric mean; read-out: hGLP1R cAMP Rel EC50 nM (SEM, n)
Sequence of human GLP-1 receptor (GLP-1R) (P43220 24-463): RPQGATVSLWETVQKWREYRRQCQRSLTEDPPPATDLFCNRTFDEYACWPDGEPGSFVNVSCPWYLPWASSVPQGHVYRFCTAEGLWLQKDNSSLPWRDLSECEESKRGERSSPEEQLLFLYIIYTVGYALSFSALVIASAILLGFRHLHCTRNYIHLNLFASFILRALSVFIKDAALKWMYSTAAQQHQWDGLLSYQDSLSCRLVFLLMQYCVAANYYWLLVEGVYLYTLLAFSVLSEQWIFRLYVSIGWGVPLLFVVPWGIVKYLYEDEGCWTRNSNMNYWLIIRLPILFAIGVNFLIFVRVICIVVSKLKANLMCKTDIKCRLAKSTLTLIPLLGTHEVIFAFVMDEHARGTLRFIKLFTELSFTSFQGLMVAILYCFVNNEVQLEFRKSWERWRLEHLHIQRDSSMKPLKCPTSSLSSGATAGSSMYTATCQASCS

[2] = molecular target: T1, gastric inhibitory peptide receptor (GIPR) (Homo sapiens, UniProt P48546); assay: cAMP pharmacological functional assay in presence of casein, hGIPR; assay type: cell-based; details: HEK293 cells expressing hGIPR, 0.1% Casein, geometric mean; read-out: hGIPR cAMP Rel EC50 nM (SEM, n)
T1 sequence (P48546 22-466): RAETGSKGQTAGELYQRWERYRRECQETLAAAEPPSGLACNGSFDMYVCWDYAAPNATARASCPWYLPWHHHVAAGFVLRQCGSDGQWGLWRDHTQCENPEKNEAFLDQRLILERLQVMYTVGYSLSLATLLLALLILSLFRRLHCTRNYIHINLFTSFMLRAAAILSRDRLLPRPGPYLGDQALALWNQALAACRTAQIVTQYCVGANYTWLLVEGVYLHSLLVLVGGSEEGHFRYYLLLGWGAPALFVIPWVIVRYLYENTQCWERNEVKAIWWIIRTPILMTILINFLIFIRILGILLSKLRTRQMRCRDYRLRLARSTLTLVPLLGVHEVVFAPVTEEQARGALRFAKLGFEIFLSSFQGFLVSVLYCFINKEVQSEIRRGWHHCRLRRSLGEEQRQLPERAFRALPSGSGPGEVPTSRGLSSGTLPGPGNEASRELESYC

SMILES | EC50 [1] [nM] | EC50 [2] [nM]
CC[C@H](C)[C@H](NC(=O)[C@H](CCCCN)NC(=O)[C@H](CC(=O)O)NC(=O)[C@H](CC(C)C)NC(=O)[C@H](CC(C)C)NC(=O)[C@@H](NC(=O)[C@H](CO)NC(=O)[C@H](Cc1ccc(O)cc1)NC(=O)[C@H](CC(=O)O)NC(=O)[C@H](CO)NC(=O)[C@@H](NC(=O)[C@H](Cc1ccccc1)NC(=O)[C@@H](NC(=O)CNC(=O)[C@H](CCC(=O)O)NC(=O)C(C)(C)NC(=O)[C@@H](N)Cc1ccc(O)cc1)[C@@H](C)O)[C@@H](C)O)[C@@H](C)CC)C(=O)N[C@@H](C)C(=O)N[C@@H](CCC(N)=O)C(=O)NC(C)(C)C(=O)N[C@@H](C)C(=O)N[C@@H](Cc1ccccc1)C(=O)N[C@H](C(=O)N[C@@H](CCC(=O)O)C(=O)N[C@@H](Cc1ccc(O)cc1)C(=O)N[C@@H](CC(C)C)C(=O)N[C@H](C(=O)N[C@@H](CCC(=O)O)C(=O)NCC(=O)NCC(=O)N1CCC[C@H]1C(=O)N[C@@H](CO)C(=O)N[C@@H](CO)C(=O)NCC(=O)N[C@@H](C)C(=O)N1CCC[C@H]1C(=O)N1CCC[C@H]1C(=O)N[C@@H](CCCCNC(=O)COCCOCCNC(=O)COCCOCCNC(=O)CC[C@H](NC(=O)CCCCCCCCCCCCCCCCCCC(=O)O)C(=O)O)C(=O)N[C@@H](CO)C(N)=O)[C@@H](C)CC)[C@@H](C)CC [Example 47] (H-Y[Aib]EGTFTSDYSILLDKIAQ[Aib]AFIEYLIEGGPSSGAPPK([AEEA-AEEA-γGlu-C20 diacid])S-NH2) | 0.702 | 0.287
CC[C@H](C)[C@H](NC(=O)[C@H](CCCCN)NC(=O)[C@H](CC(=O)O)NC(=O)[C@H](CC(C)C)NC(=O)[C@H](CC(C)C)NC(=O)[C@@H](NC(=O)[C@H](CO)NC(=O)[C@H](CCCCNC(=O)COCCOCCNC(=O)COCCOCCNC(=O)CC[C@H](NC(=O)CCCCCCCCCCCCCCCCCCC(=O)O)C(=O)O)NC(=O)[C@H](CC(=O)O)NC(=O)[C@H](CO)NC(=O)[C@@H](NC(=O)[C@H](Cc1ccccc1)NC(=O)[C@@H](NC(=O)CNC(=O)[C@H](CCC(=O)O)NC(=O)C(C)(C)NC(=O)[C@@H](N)Cc1ccc(O)cc1)[C@@H](C)O)[C@@H](C)O)[C@@H](C)CC)C(=O)N[C@@H](C)C(=O)N[C@@H](CCC(N)=O)C(=O)NC(C)(C)C(=O)N[C@@H](C)C(=O)N[C@@H](Cc1ccccc1)C(=O)N[C@H](C(=O)N[C@@H](CCC(=O)O)C(=O)N[C@@H](Cc1ccc(O)cc1)C(=O)N[C@@H](CC(C)C)C(=O)N[C@H](C(=O)N[C@@H](CCC(=O)O)C(=O)NCC(=O)NCC(N)=O)[C@@H](C)CC)[C@@H](C)CC [Example 70] (H-Y[Aib]EGTFTSDK([AEEA-AEEA-γGlu-C20 diacid])SILLDKIAQ[Aib]AFIEYLIEGG-NH2; N-terminus assumed) | 0.283 | 0.48
CC[C@H](C)[C@H](NC(=O)[C@H](CCCCN)NC(=O)[C@H](CC(=O)O)NC(=O)[C@H](CCCCNC(=O)COCCOCCNC(=O)COCCOCCNC(=O)CC[C@H](NC(=O)CCCCCCCCCCCCCCCCCCC(=O)O)C(=O)O)NC(=O)[C@H](CC(C)C)NC(=O)[C@@H](NC(=O)[C@H](CO)NC(=O)[C@H](Cc1ccc(O)cc1)NC(=O)[C@H](CC(=O)O)NC(=O)[C@H](CO)NC(=O)[C@@H](NC(=O)[C@H](Cc1ccccc1)NC(=O)[C@@H](NC(=O)CNC(=O)[C@H](CCC(=O)O)NC(=O)C(C)(C)NC(=O)[C@@H](N)Cc1ccc(O)cc1)[C@@H](C)O)[C@@H](C)O)[C@@H](C)CC)C(=O)N[C@@H](C)C(=O)N[C@@H](CCC(N)=O)C(=O)NC(C)(C)C(=O)N[C@@H](C)C(=O)N[C@@H](Cc1ccccc1)C(=O)N[C@H](C(=O)N[C@@H](CCC(=O)O)C(=O)N[C@@H](Cc1ccc(O)cc1)C(=O)N[C@@H](CC(C)C)C(=O)N[C@H](C(=O)N[C@@H](CCC(=O)O)C(=O)NCC(=O)NCC(N)=O)[C@@H](C)CC)[C@@H](C)CC [Example 71] (H-Y[Aib]EGTFTSDYSILK([AEEA-AEEA-γGlu-C20 diacid])DKIAQ[Aib]AFIEYLIEGG-NH2) | 1.02 | 0.166
CC[C@H](C)[C@H](NC(=O)[C@H](CCCCN)NC(=O)[C@H](CC(=O)O)NC(=O)[C@H](CC(C)C)NC(=O)[C@H](CC(C)C)NC(=O)[C@@H](NC(=O)[C@H](CO)NC(=O)[C@H](Cc1ccc(O)cc1)NC(=O)[C@H](CC(=O)O)NC(=O)[C@H](CO)NC(=O)[C@@H](NC(=O)[C@H](Cc1ccccc1)NC(=O)[C@@H](NC(=O)CNC(=O)[C@H](CCC(=O)O)NC(=O)C(C)(C)NC(=O)[C@@H](N)Cc1ccc(O)cc1)[C@@H](C)O)[C@@H](C)O)[C@@H](C)CC)C(=O)N[C@@H](C)C(=O)N[C@@H](CCC(N)=O)C(=O)NC(C)(C)C(=O)N[C@@H](CCCCNC(=O)COCCOCCNC(=O)COCCOCCNC(=O)CC[C@H](NC(=O)CCCCCCCCCCCCCCCCCCC(=O)O)C(=O)O)C(=O)N[C@@H](Cc1ccccc1)C(=O)N[C@H](C(=O)N[C@@H](CCC(=O)O)C(=O)N[C@@H](Cc1ccc(O)cc1)C(=O)N[C@@H](CC(C)C)C(=O)N[C@H](C(=O)N[C@@H](CCC(=O)O)C(=O)NCC(=O)NCC(N)=O)[C@@H](C)CC)[C@@H](C)CC [Example 72] (H-Y[Aib]EGTFTSDYSILLDKIAQ[Aib]K([AEEA-AEEA-γGlu-C20 diacid])FIEYLIEGG-NH2) | 0.906 | 0.252
CC[C@H](C)[C@H](NC(=O)[C@H](CCCCN)NC(=O)[C@H](CC(=O)O)NC(=O)[C@H](CC(C)C)NC(=O)[C@H](CC(C)C)NC(=O)[C@@H](NC(=O)[C@H](CO)NC(=O)[C@H](Cc1ccc(O)cc1)NC(=O)[C@H](CC(=O)O)NC(=O)[C@H](CO)NC(=O)[C@@H](NC(=O)[C@H](Cc1ccccc1)NC(=O)[C@@H](NC(=O)CNC(=O)[C@H](CCC(=O)O)NC(=O)C(C)(C)NC(=O)[C@@H](N)Cc1ccc(O)cc1)[C@@H](C)O)[C@@H](C)O)[C@@H](C)CC)C(=O)N[C@@H](C)C(=O)N[C@@H](CCC(N)=O)C(=O)NC(C)(C)C(=O)N[C@@H](C)C(=O)N[C@@H](Cc1ccccc1)C(=O)N[C@H](C(=O)N[C@@H](CCC(=O)O)C(=O)N[C@@H](Cc1ccc(O)cc1)C(=O)N[C@@H](CC(C)C)C(=O)N[C@H](C(=O)N[C@@H](CCCCNC(=O)COCCOCCNC(=O)COCCOCCNC(=O)CC[C@H](NC(=O)CCCCCCCCCCCCCCCCCCC(=O)O)C(=O)O)C(=O)NCC(=O)NCC(N)=O)[C@@H](C)CC)[C@@H](C)CC [Example 73] (H-Y[Aib]EGTFTSDYSILLDKIAQ[Aib]AFIEYLIK([AEEA-AEEA-γGlu-C20 diacid])GG-NH2) | 2.55 | 0.979
CC[C@H](C)[C@H](NC(=O)[C@H](CC(C)C)NC(=O)[C@H](Cc1ccc(O)cc1)NC(=O)[C@@H](CCC(=O)O)NC(=O)[C@@H](NC(=O)[C@H](Cc1ccccc1)NC(=O)[C@H](Cc1c[nH]cn1)NC(=O)C(C)(C)NC(=O)[C@H](CCC(N)=O)NC(=O)[C@H](C)NC(=O)[C@H](CCCCNC(=O)COCCOCCNC(=O)COCCOCCNC(=O)CC[C@H](NC(=O)CCCCCCCCCCCCCCCCC(=O)O)C(=O)O)NC(=O)[C@H](CCC(=O)O)NC(=O)[C@H](CC(=O)O)NC(=O)[C@H](CC(C)C)NC(=O)[C@](C)(CC(C)C)NC(=O)[C@@H](NC(=O)[C@H](CO)NC(=O)[C@H](Cc1c[nH]cn1)NC(=O)[C@H](CC(=O)O)NC(=O)[C@H](CO)NC(=O)[C@@H](NC(=O)[C@](C)(Cc1ccccc1F)NC(=O)[C@@H](NC(=O)CNC(=O)[C@H](CCC(=O)O)NC(=O)C(C)(C)NC(=O)[C@@H](N)Cc1ccc(O)cc1)[C@@H](C)O)[C@@H](C)O)[C@@H](C)CC)[C@@H](C)CC)C(=O)N[C@@H](CCC(=O)O)C(=O)NCC(=O)NCC(N)=O [Example 180] (H-Y[Aib]EGT[αMePhe(2-F)]TSDHSI[αMeL]LDEK([AEEA-AEEA-γGlu-C18 diacid])AQ[Aib]HFI[dE]YLIEGG-NH2) | 2.16 | –
CC[C@H](C)[C@H](NC(=O)[C@H](CC(C)C)NC(=O)[C@H](Cc1ccc(O)cc1)NC(=O)[C@@H](CCC(=O)O)NC(=O)[C@@H](NC(=O)[C@H](Cc1ccccc1)NC(=O)[C@H](CCC(=O)O)NC(=O)C(C)(C)NC(=O)[C@H](CCC(N)=O)NC(=O)[C@H](C)NC(=O)[C@H](CCCCNC(=O)COCCOCCNC(=O)COCCOCCNC(=O)CC[C@H](NC(=O)CCCCCCCCCCCCCCCCCCC(=O)O)C(=O)O)NC(=O)[C@H](CCC(=O)O)NC(=O)[C@H](CC(=O)O)NC(=O)[C@H](CC(C)C)NC(=O)[C@](C)(CC(C)C)NC(=O)[C@@H](NC(=O)[C@H](CO)NC(=O)[C@@H](Cc1ccc(O)cc1)NC(=O)[C@H](CC(=O)O)NC(=O)[C@H](CO)NC(=O)[C@@H](NC(=O)[C@](C)(Cc1ccccc1F)NC(=O)[C@@H](NC(=O)CNC(=O)[C@H](CCC(=O)O)NC(=O)C(C)(C)NC(=O)[C@@H](N)Cc1ccc(O)cc1)[C@@H](C)O)[C@@H](C)O)[C@@H](C)CC)[C@@H](C)CC)C(=O)N[C@@H](CCC(=O)O)C(=O)NCC(=O)NCC(=O)N1CCC[C@H]1C(=O)N[C@@H](CO)C(=O)N[C@@H](CO)C(=O)NCC(=O)N[C@@H](C)C(=O)N1CCC[C@H]1C(=O)N1CCC[C@H]1C(=O)N1CCC[C@H]1C(=O)N[C@@H](CO)C(N)=O [Example 184] (H-Y[Aib]EGT[αMePhe(2-F)]TSD[dY]SI[αMeL]LDEK([AEEA-AEEA-γGlu-C20 diacid])AQ[Aib]EFI[dE]YLIEGGPSSGAPPPS-NH2) | – | 0.0477
